# Results from patent EP3345917A1, “ANTIPROTOZOAL COMPOUNDS” (Bacoba AG, priority 2017, dated 2018).
# Where “and” joins values, the source holds several entries; their conditions need not be identical. Identical values can stand only once. Entries after “also recorded” stand apart in the source; their conditions may differ. Like-named read-outs stand apart in the source and are kept apart here. Non-standard residues stand in square brackets, D forms with d. Residues, ends and D or L forms follow the SMILES beside them. *: point of attachment. NH(1-CH2NMe2-cBu) = CN(C)CC1(N*)CCC1; Oxazole4CO(2-Me) = Cc1nc(C(=O)*)co1; Benzoyl(4-F) = O=C(c1ccc(F)cc1)*; hCha = N[C@@H](CCC1CCCCC1)C(=O)O; Aib = CC(C)(N)C(=O)O; βAla = NCCC(=O)O
# Experiments:
# [1] = test system: intracellular Leishmania donovani (L.don. InMac); assay: Intracellular Leishmania donovani assay (L.don. InMac); assay type: cell-based; conditions: In vitro inhibition
# Description: (§1) Tests were done in triplicate.
# [2] = test system: Plasmodium falciparum; assay: 3H-hypoxanthine incorporation assay against Plasmodium falciparum; assay type: cell-based; conditions: In vitro inhibition, read-out: P.falc NF5
# Protocol: as §1
# IC50 values were calculated by linear interpolation.
# [3] = test system: Axenically grown Leishmania donovani amastigotes (strain MHOM/ET/67/L82); assay: Axenic Leishmania donovani amastigote resazurin assay; assay type: cell-based; conditions: In vitro inhibition, read-out: L.don. ax
# How it was run: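 Strain MHOM/ET/67/L82 amastigotes grown axenically and tested in triplicate by resazurin assay. Plates developed 2-4 hours, fluorescence read at 536 nm excitation/588 nm emission and expressed as percentage of negative control.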
# [4] = test system: Trypanosoma brucei rhodesiense (STIB 900 strain); assay: Alamar Blue assay against Trypanosoma brucei rhodesiense grown in axenic medium; assay type: cell-based; conditions: In vitro inhibition, read-out: T.b.rhod.
# How it was run: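 T. b. rhodesiense STIB 900 cultured in axenic medium and exposed to samples in an Alamar Blue viability assay, run in triplicate. IC50 calculated from the readout; melarsoprol served as reference drug.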
# [5] = test system: Trypanosoma brucei brucei; assay: Acute mouse sleeping sickness model (in vivo antitrypanosomal activity); conditions: for Mean day of relapse / Mean day of survival / animals surviving until day 31: group of four mice; for Day of relapse / Parasitaemia day 7 / Parasitaemia day 10 / Parasitaemia day 14 / Parasitaemia day 17 / Parasitaemia day 21 / Parasitaemia day 24 / Parasitaemia day 28 / Parasitaemia day 31 / Survival days: individual mice; for parasitaemia on day 7: day 7 post infection; for reduction of parasitaemia compared to untreated controls: four mice; as to Parasitaemia day 7: key: 0 = no parasite in 20 fields of view; ((+)) = 1 Trypanosome in 20 fields of view; (+) = 1 Trypanosome per field of view; + = 2 - 5 Trypanosomes per field of view; ++ = 6 - 20 Trypanosomes per field of view, the mouse is killed; +++ = > 20 Trypanosomes per field of view, the mouse is killed
# Protocol: This model mimics the first stage of the human African trypanosomiasis. Adult female NMRI mice were purchased from Janvier (St. Berthevin, France). They weighed between 20 and 25 g at the beginning of the study and were kept under standard conditions at 22 °C and 60-70% humidity in macro Ion type III cages with food pellets and water ad libitum. The samples were first dissolved in 100% DMSO, followed by addition of distilled H2O to a final DMSO concentration of 10%. For determination of the in vivo antitrypanosomal activity, mice were infected intraperitoneally with 1 x 10^4 STIB900 bloodstream forms. […] A control group of four mice was infected, but remained untreated. The determination of the parasitaemia was done on days 7, 10, 14, 17, 21, 24, 28, and 31 post infection. To do this 6 µL of tail blood were diluted in 24 µL sodium citrate (3.2%), whereby the first µL was discarded to obtain circulating blood. Five µL of this mixture were transferred to a glass slide and covered with an 18 x 18 mm cover slide. The sample was examined under a light microscope (200-fold magnification) and parasites were counted in 3 of the 16 squares of the grid.
# [6] = test system: Trypanosoma cruzi trypomastigote forms (Tulahuen strain); assay: Intracellular Trypanosoma cruzi assay in L6-cells, beta-galactosidase/CPRG readout; assay type: cell-based; conditions: In vitro inhibition, read-out: T.cruzi.
# How it was run: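 L6 rat myoblasts infected with Tulahuen C2C4 LacZ T. cruzi; after incubation, CPRG/Nonidet substrate added and colour developed 2–6 h. Absorbance at 540 nm; IC50 calculated; triplicate tests.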
# [7] = Cytotoxicity assay on L6-cells (Alamar Blue); conditions: rat, Cytotox L6, Cytotoxicity against rat myoblast cells (L6)
# [8] = test system: Plasmodium falciparum K1 strain; assay: microbe, parasite or virus in culture
# Protocol: (§2) Testing of compounds against Plasmodium falciparum (K1 strain), Trypanosoma brucei rhodesiense (STIB 900 strain), Trypanosoma cruzi trypomastigote forms (Tulahuen strain), and Leishmania donovani (strain MHOM/ET/67/L82) was performed in 96 well plates at concentrations in serial dilutions. Tests were done in triplicate. IC50 values against the parasites as well as cytotoxic effects against rat myoblast (L6-cells) were determined by serial dilution and repeated twice.
# Determination of activity against Plasmodium falciparum K1 strain was done using a modified version of the ^3H-hypoxanthine incorporation assay by Trager and Jensen (Trager W. and Jensen, J.B. Science 1976; 193:673-675). After incubation the plates were harvested using a Betaplate cell harvester (Wallac, Switzerland) onto glass-fiber filters and washed. The dried filters were inserted into plastic foils with 10 ml scintillation fluid. The radioactivity was counted with a Betaplate liquid scintillation counter (Wallac, Switzerland) as counts per minute per well at each drug concentration and compared to the untreated controls. […] IC50 values were calculated by linear interpolation. All assays were run in duplicate and repeated two times.
# [9] = Cytotoxicity assay on L6-cells (Alamar Blue); conditions: rat, L6 rat myoblast cells
# Protocol: as §2
# [10] = test system: rat myoblast (L6-cells); assay: Cytotoxicity assay on L6-cells (Alamar Blue); conditions: Rattus norvegicus, Myoblast, 70 h
# Protocol: as §2
# [11] = 3 mg/kg per injection, 2 per day, 4 treatment days, i.p.
# [12] = 3 mg/kg twice a day for 4 days, intraperitoneally
# [13] = 30 mg/kg per injection, 1 per day, 4 treatment days, p.o.
# [14] = 3 mg/kg per injection, 2 per day, 2 treatment days, i.p.
# [15] = 3 mg/kg twice a day for 2 days, intraperitoneal
structure (smiles),measurement,setting,value
"Cc1nc(C(=O)N2CCC[C@H]2C(=O)N[C@@H](CCC2CCCCC2)C(=O)N[C@@H](CC(C)C)C(=O)NC(C)(C)C(=O)N[C@@H](CC(C)C)C(=O)N[C@@H](CC(C)C)C(=O)NC(C)(C)C(=O)NC(C)(C)C(=O)NCCC(=O)NC2(CN(C)C)CCC2)co1 [Compound 6025, (2S)-2-[(2S)-4-cyclohexyl-2-{[(2S)-1-(2-methyl-1,3-oxazole-4-carbonyl)pyrrolidin-2-yl]formamido}butanamido]-N-(1-{[(1S)-1-{[(1S)-1-({1-[(1-{[2-({1-[(dimethylamino)methyl]cyclobutyl}carbamoyl)ethyl]carbamoyl}-1-methylethyl)carbamoyl]-1-methylethyl}carbamoyl)-3-methylbutyl]carbamoyl}-3-methylbutyl]carbamoyl}-1-methylethyl)-4-methylpentanamide] ({Oxazole4CO(2-Me)}-P[hCha]L[Aib]LL[Aib][Aib][βAla]-{NH(1-CH2NMe2-cBu)})",IC50,[1],41.1 nM
same,IC50,[2],20900 nM
same,IC50,[3],31300 nM
same,IC50,[4],0.5 nM
same,Mean day of relapse,[5]; [11],15 days
same,Mean day of survival,[5]; [11],28 days
same,Day of relapse,[5]; [11],10 day and 17 day (2×)
same,Parasitaemia day 7,[5]; [11],0
same,Parasitaemia day 10,[5]; [11],0 (3×) and ((+)) (((+)) = 1 Trypanosome in 20 fields of view)
same,Parasitaemia day 14,[5]; [11],0
same,Parasitaemia day 17,[5]; [11],"0 and ((+)) (((+)) = 1 Trypanosome in 20 fields of view) and ++ (++ = 6 - 20 Trypanosomes per field of view, the mouse is killed) and (+) ((+) = 1 Trypanosome per field of view)"
same,Parasitaemia day 21,[5]; [11],0 (2×) and (+) ((+) = 1 Trypanosome per field of view)
same,Parasitaemia day 24,[5]; [11],0 (2×) and ((+)) (((+)) = 1 Trypanosome in 20 fields of view)
same,Parasitaemia day 28,[5]; [11],0
same,Parasitaemia day 31,[5]; [11],0 (2×) and (+) ((+) = 1 Trypanosome per field of view)
same,Survival days,[5]; [11],31 days (3×) and 17 days
same,animals surviving treatment,[5]; [12],all animals survived treatment
same,parasitaemia on day 7,[5]; [12],no observable parasitaemia
same,reduction of parasitaemia compared to untreated controls,[5]; [12],significant reduction of parasitaemia
same,animals surviving until day 31,[5]; [12],three out of four
same,animals with no observable parasitaemia at day 31,"[5]; 3 mg/kg twice a day for 4 days, intraperitoneally, of the three survivors",2
same,Mean day of relapse,[5]; [13],15 days
same,Mean day of survival,[5]; [13],21 days
same,Day of relapse,[5]; [13],17 day (2×) and 14 day and 10 day
same,Parasitaemia day 7,[5]; [13],0
same,Parasitaemia day 10,[5]; [13],0 (3×) and ((+)) (((+)) = 1 Trypanosome in 20 fields of view)
same,Parasitaemia day 14,[5]; [13],0 (2×) and (+) ((+) = 1 Trypanosome per field of view) (2×)
same,Parasitaemia day 17,[5]; [13],"+ (+ = 2 - 5 Trypanosomes per field of view); also recorded: ++ (++ = 6 - 20 Trypanosomes per field of view, the mouse is killed)"
same,Parasitaemia day 21,[5]; [13],((+)) (((+)) = 1 Trypanosome in 20 fields of view)
same,Parasitaemia day 24,[5]; [13],(+) ((+) = 1 Trypanosome per field of view)
same,Parasitaemia day 28,[5]; [13],+ (+ = 2 - 5 Trypanosomes per field of view)
same,Parasitaemia day 31,[5]; [13],"+++ (+++ = > 20 Trypanosomes per field of view, the mouse is killed)"
same,Survival days,[5]; [13],20 days and 17 days (2×) and 31 days
same,animals surviving treatment,"[5]; mouse, in vivo, po, 30 mg/kg",all animals survived treatment
same,relapse by day 17,[5]; orally at 30 mg/kg once a day,all had relapsed
same,parasitaemia on day 7,[5]; orally at 30 mg/kg once a day,no observable parasitaemia
same,reduction of parasitaemia compared to untreated controls,[5]; orally at 30 mg/kg once a day,significant reduction of parasitaemia
same,animals surviving until day 31,[5]; orally at 30 mg/kg once a day,one
same,IC50,[6],215 nM
same,IC50 at 70 h,[7],1910 nM
CCN(CC)CCCC(C)Nc1ccnc2cc(Cl)ccc12 (stereo not drawn) [Chloroquine],IC50,[8]; K1,50 ± 10 nM
same,IC50,"[8]; K1, read-out: P.falc NF5",6.25 nM
COc1cc([C@@H]2c3cc4c(cc3[C@H](O)[C@H]3COC(=O)[C@H]23)OCO4)cc(OC)c1OC [Podophyllotoxin],IC50 at 70 h,[9],19.3 nM
same,IC50,[10],50 ± 10 nM
"CC(C)C[C@H](NC(=O)[C@H](CCC1CCCCC1)NC(=O)[C@@H]1CCCN1C(=O)c1ccc(F)cc1)C(=O)NC(C)(C)C(=O)N[C@@H](CC(C)C)C(=O)N[C@@H](CC(C)C)C(=O)NC(C)(C)C(=O)NC(C)(C)C(=O)NCCC(=O)NC1(CN(C)C)CCC1 [Compound 6027, (2S)-2-[(2S)-4-cyclohexyl-2-{[(2S)-1-(4-fluorobenzoyl)pyrrolidin-2-yl]formamido}butanamido]-N-(1-{[(1S)-1-{[(1S)-1-({1-[(1-{[2-({1-[(dimethylamino)methyl]cyclobutyl}carbamoyl)ethyl]carbamoyl}-1-methylethyl)carbamoyl]-1-methylethyl}carbamoyl)-3-methylbutyl]carbamoyl}-3-methylbutyl]carbamoyl}-1-methylethyl)-4-methylpentanamide] ({Benzoyl(4-F)}-P[hCha]L[Aib]LL[Aib][Aib][βAla]-{NH(1-CH2NMe2-cBu)})",IC50,[1],54.2 nM
same,IC50,[2],42500 nM
same,IC50,[3],34100 nM
same,IC50,[4],0.4 nM
same,Mean day of relapse,[5]; [14],17 days
same,Mean day of survival,[5]; [14],18 days
same,Day of relapse,[5]; [14],17 days
same,Parasitaemia day 7,[5]; [14],0
same,Parasitaemia day 10,[5]; [14],0
same,Parasitaemia day 14,[5]; [14],0
same,Parasitaemia day 17,[5]; [14],"++ (++ = 6 - 20 Trypanosomes per field of view, the mouse is killed); also recorded: + (+ = 2 - 5 Trypanosomes per field of view)"
same,Parasitaemia day 21,[5]; [14],((+)) (((+)) = 1 Trypanosome in 20 fields of view)
same,Parasitaemia day 24,[5]; [14],((+)) (((+)) = 1 Trypanosome in 20 fields of view)
same,Parasitaemia day 28,[5]; [14],(+) ((+) = 1 Trypanosome per field of view)
same,Parasitaemia day 31,[5]; [14],(+) ((+) = 1 Trypanosome per field of view)
same,Survival days,[5]; [14],17 days (2×) and 31 days and 5 days
same,parasitaemia by day 17,[5]; [15],all surviving animals showed parasitaemia
same,parasitaemia of the surviving animal at day 31,[5]; [15],low parasitaemia
same,animals sacrificed after parasitaemia relapse,"[5]; 3 mg/kg twice a day for 2 days, intraperitoneal, after day 17",two
same,parasitaemia on day 7,[5]; [15],no observable parasitaemia
same,reduction of parasitaemia compared to untreated controls,[5]; [15],significant reduction of parasitaemia
same,animals surviving until day 31,[5]; [15],one
same,animals surviving treatment,"[5]; 3 mg/kg twice a day for 2 days, intraperitoneal, one death on day 5 for unspecified reasons","all animals survived treatment, except for one"
same,IC50,[6],155 nM
same,IC50 at 70 h,[7],1390 nM
